These results are taken from publication PMC10935503 (Acta Pharmaceutica Sinica. B, 2023).

Each structure is given as a SMILES string.

Type in all cases: cell-based
Data set [1] concerns HIV-1 WT strain (IIIB). In words: Anti-HIV-1 activity in MT-4 cells, MTT method, WT strain IIIB. Conditions: for EC50: Human immunodeficiency virus 1, IIIB, MT4, read-out: EC50 IIIB.
The test system of data set [2] is HIV-1 K103N + Y181C (RES056). In words: microbe, parasite or virus in culture. As to conditions: for EC50: Human immunodeficiency virus 1, MT4, read-out: EC50 RES056; for RF RES056: resistance fold, EC50 (mutant strain)/EC50 (WT strain); for SI RES056: selectivity index, ratio of CC50/EC50.
The nature of data set [3]: Cytotoxicity in mock-infected MT-4 cells, MTT method. As to conditions: human.
Data set [4] relates to HIV-1 L100I. In words: microbe, parasite or virus in culture. Conditions: for EC50: Human immunodeficiency virus 1, MT4, read-out: EC50 L100I; for RF L100I: resistance fold, EC50 (mutant strain)/EC50 (WT strain); for SI L100I: selectivity index, ratio of CC50/EC50.
Data set [5] has as its system HIV-1 K103N. In words: microbe, parasite or virus in culture. As to conditions: for EC50: Human immunodeficiency virus 1, MT4, read-out: EC50 K103N; for RF K103N: resistance fold, EC50 (mutant strain)/EC50 (WT strain); for SI K103N: selectivity index, ratio of CC50/EC50.
In data set [6] the test system is HIV-1 Y181C. In words: microbe, parasite or virus in culture. Conditions: for EC50: Human immunodeficiency virus 1, MT4, read-out: EC50 Y181C; for RF Y181C: resistance fold, EC50 (mutant strain)/EC50 (WT strain); for SI Y181C: selectivity index, ratio of CC50/EC50.
For data set [7], the system named is HIV-1 Y188L. In words: microbe, parasite or virus in culture. As to conditions: for EC50: Human immunodeficiency virus 1, MT4, read-out: EC50 Y188L; for RF Y188L: resistance fold, EC50 (mutant strain)/EC50 (WT strain); for SI Y188L: selectivity index, ratio of CC50/EC50.
Data set [8] deals with HIV-1 E138K. In words: microbe, parasite or virus in culture. As to conditions: for EC50: Human immunodeficiency virus 1, MT4, read-out: EC50 E138K; for RF E138K: resistance fold, EC50 (mutant strain)/EC50 (WT strain); for SI E138K: selectivity index, ratio of CC50/EC50.
The subject of data set [9] is HIV-1 F227L + V106A. In words: microbe, parasite or virus in culture. As to conditions: for EC50: Human immunodeficiency virus 1, MT4, read-out: EC50 F227L + V106A; for RF F227L + V106A: resistance fold, EC50 (mutant strain)/EC50 (WT strain); for SI F227L + V106A: selectivity index, ratio of CC50/EC50.

As to `Cc1cc(C#N)cc(C)c1Oc1nc(Nc2ccc(C#N)cc2)nc2c1[S+]([O-])CCC2` (centres unmarked) [16a, 4-((2-((4-Cyanophenyl)amino)-5-oxido-7,8-dihydro-6H-thiopyrano[3,2-d]pyrimidin-4-yl)oxy)-3,5-dimethylbenzonitrile], the EC50 in [1] came to 7.99 ± 0.95 nM; in data set [2], 445 ± 95.7 nM. Besides, in data set [3], the CC50 at 5 days is at least 19.7 µM.

Turning to `Cc1cc(C#N)cc(C)c1Oc1nc(N2CCN(Cc3ccc(S(N)(=O)=O)cc3)CC2)nc2c1SCCC2` [19a, 4-((4-(4-(4-Cyano-2,6-dimethylphenoxy)-7,8-dihydro-6H-thiopyrano[3,2-d]pyrimidin-2-yl)piperazin-1-yl)methyl)benzenesulfonamide], the 50% effective concentration (EC50) in data set [1] is over 3080 nM. Also, in data set [1] (MT-4 cells, MTT method, HIV-1 IIIB (WT)), the “EC50 IIIB” value is given as “lost potency”. In addition, in data set [3], the midpoint of cytotoxicity, the CC50 at 5 days, lay at 19.3 ± 3.04 µM.

For the compound `Cc1cc(C#N)cc(C)c1Oc1nc(NCCn2ccc(=O)[nH]c2=O)nc2c1SCCC2` [20a, 4-((2-((2-(2,4-Dioxo-3,4-dihydropyrimidin-1(2H)-yl)ethyl)amino)-7,8-dihydro-6H-thiopyrano[3,2-d]pyrimidin-4-yl)oxy)-3,5-dimethylbenzonitrile], the EC50 in [1] was 233 ± 158 nM; in data set [2], over 248000 nM. The CC50 at 5 days in data set [3] was over 284 µM.

As for `Cc1cc(/C=C/C#N)cc(C)c1Oc1nc(NCCn2ccc(=O)[nH]c2=O)nc2c1SCCC2` [20b, (E)-3-(4-((2-((2-(2,4-Dioxo-3,4-dihydropyrimidin-1(2H)-yl)ethyl)amino)-7,8-dihydro-6H-thiopyrano[3,2-d]pyrimidin-4-yl)oxy)-3,5-dimethylphenyl)acrylonitrile], the figures for the 50% effective concentration (EC50) in data set [1] and in data set [2] were 20 ± 19.8 nM and 22700 nM, respectively. Further, the cytotoxic concentration (CC50) at 5 days in data set [3] was found to be 142 ± 31.1 µM.

With `Cc1cc(C)c(Oc2nc(NCCn3ccc(=O)[nH]c3=O)nc3c2SCCC3)c(C)c1` [20c, 1-(2-((4-(Mesityloxy)-7,8-dihydro-6H-thiopyrano[3,2-d]pyrimidin-2-yl)amino)ethyl)pyrimidine-2,4(1H,3H)-dione], the 50% effective concentration (EC50) is 523 ± 466 nM in [1] and over 152000 nM in [2]. Further, the midpoint of cytotoxicity in data set [3], the CC50 at 5 days, lay at 152 ± 28.3 µM.

On to `Cc1cc(C#N)cc(C)c1Oc1nc(NC2CCN(Cc3ccc(C#N)cc3)CC2)nc2c1SCCC2` [23a, 4-((2-((1-(4-Cyanobenzyl)piperidin-4-yl)amino)-7,8-dihydro-6H-thiopyrano[3,2-d]pyrimidin-4-yl)oxy)-3,5-dimethylbenzonitrile], for which the EC50 in data set [1] was 4.44 ± 1.39 nM; in data set [2], 263 ± 97.1 nM. Moreover, the cytotoxic concentration (CC50) at 5 days in data set [3] worked out at 3.76 ± 0.32 µM.

Turning to `Cc1cc(C#N)cc(C)c1Oc1nc(NC2CCN(Cc3ccccc3C#N)CC2)nc2c1SCCC2` [23c, 4-((2-((1-(2-Cyanobenzyl)piperidin-4-yl)amino)-7,8-dihydro-6H-thiopyrano[3,2-d]pyrimidin-4-yl)oxy)-3,5-dimethylbenzonitrile], the EC50 in data set [1] was determined as 7.1 ± 2.69 nM; in data set [2], 1160 ± 184 nM. In data set [3], this compound displayed a CC50 at 5 days of 3.86 ± 1.14 µM.

Turning to `Cc1cc(C#N)cc(C)c1Oc1nc(NC2CCN(Cc3cccc(S(N)(=O)=O)c3)CC2)nc2c1SCCC2` [23d, 3-((4-((4-(4-Cyano-2,6-dimethylphenoxy)-7,8-dihydro-6H-thiopyrano[3,2-d]pyrimidin-2-yl)amino)piperidin-1-yl)methyl)benzenesulfonamide], the concentration giving a half-maximal response (EC50) came out at 4.65 ± 0.65 nM in [1] and 790 ± 134 nM in data set [2]. The compound also yielded a CC50 at 5 days in [3] of 5.61 ± 3.42 µM.

`CCOC(=O)c1ccc(CN2CCC(Nc3nc4c(c(Oc5c(C)cc(C#N)cc5C)n3)SCCC4)CC2)cc1` [23e, Ethyl 4-((4-((4-(4-cyano-2,6-dimethylphenoxy)-7,8-dihydro-6H-thiopyrano[3,2-d]pyrimidin-2-yl)amino)piperidin-1-yl)methyl)benzoate]: the half-maximal effective concentration (EC50) was determined as 14.8 ± 13.5 nM in data set [1] and 4830 ± 517 nM in [2]. In data set [3], this compound returned a CC50 at 5 days of 65.3 ± 39.8 µM.

`Cc1cc(C#N)cc(C)c1Oc1nc(NC2CCN(Cc3ccc(N)cc3)CC2)nc2c1SCCC2` [23f, 4-((2-((1-(4-Aminobenzyl)piperidin-4-yl)amino)-7,8-dihydro-6H-thiopyrano[3,2-d]pyrimidin-4-yl)oxy)-3,5-dimethylbenzonitrile]: the concentration giving a half-maximal response (EC50) in data set [1] is 7 ± 1.04 nM. Further, in data set [2], the concentration giving a half-maximal response (EC50) came out at 653 ± 236 nM, the “RF RES056” value was 93.3 and the “SI RES056” value came to 18. Besides, in data set [4], the EC50 was 55.6 ± 2.68 nM, the “RF L100I” value amounted to 7.9 and the “SI L100I” value amounted to 216. Besides, in data set [5], the concentration giving a half-maximal response (EC50) was 8.69 nM, the “RF K103N” value is recorded as 1.2 and the “SI K103N” value is listed as 1381. In [6], the EC50 was found to be 14.7 ± 1.17 nM, the “RF Y181C” value came to 2.1 and the “SI Y181C” value was found to be 816. In data set [7], the concentration giving a half-maximal response (EC50) came to 26.1 ± 3.53 nM, the “RF Y188L” value amounted to 3.7 and the “SI Y188L” value is on record as 460. For the same compound, in [8], the EC50 amounted to 21.6 ± 0.56 nM, the “RF E138K” value turned out to be 3.0 and the “SI E138K” value is listed as 556. In addition, in [9], the EC50 is 184 ± 8.33 nM, the “RF F227L + V106A” value came to 26.3 and the “SI F227L + V106A” value is 65. In data set [3], the CC50 at 5 days turned out to be 12 ± 6.47 µM.

As for `Cc1cc(C#N)cc(C)c1Oc1nc(NC2CCN(Cc3ccc(NS(C)(=O)=O)cc3)CC2)nc2c1SCCC2` [23g, N-(4-((4-((4-(4-cyano-2,6-dimethylphenoxy)-7,8-dihydro-6H-thiopyrano[3,2-d]pyrimidin-2-yl)amino)piperidin-1-yl)methyl)phenyl)methanesulfonamide], the EC50 in [1] came out at 2.37 ± 1.98 nM. Also, in data set [2], the EC50 came to 326 ± 185 nM, the “RF RES056” value was found to be 138 and the “SI RES056” value was at least 12. In data set [4], the EC50 was 28 ± 5.38 nM, the “RF L100I” value was found to be 11.8 and the “SI L100I” value was at least 138. For the same compound, in [5], the EC50 was determined as 4.59 ± 0.45 nM, the “RF K103N” value was determined as 1.9 and the “SI K103N” value is at least 843. Besides, in data set [6], the concentration giving a half-maximal response (EC50) is at most 8.29 nM, the “RF Y181C” value is on record as at most 3.5 and the “SI Y181C” value is listed as at least 467. Besides, in data set [7], the EC50 is 12.7 ± 2.99 nM, the “RF Y188L” value is 5.4 and the “SI Y188L” value is recorded as at least 305. Also, in data set [8], the concentration giving a half-maximal response (EC50) came to 8.66 ± 0.54 nM, the “RF E138K” value is 3.7 and the “SI E138K” value is at least 447. In data set [9], the concentration giving a half-maximal response (EC50) is 165 ± 40.8 nM, the “RF F227L + V106A” value was 69.6 and the “SI F227L + V106A” value is listed as at least 23. In [3], this compound displayed a CC50 at 5 days of at least 3.87 µM.

Regarding `Cc1cc(C)c(Oc2nc(NC3CCN(Cc4ccc(S(N)(=O)=O)cc4)CC3)nc3c2SCCC3)c(C)c1` [23i, 4-((4-((4-(Mesityloxy)-7,8-dihydro-6H-thiopyrano[3,2-d]pyrimidin-2-yl)amino)piperidin-1-yl)methyl)benzenesulfonamide], in data set [1], the EC50 stood at 5.43 ± 4.4 nM. In [2], the EC50 came out at 442 ± 272 nM, the “RF RES056” value was 81.4 and the “SI RES056” value was at least 511. Moreover, in data set [4], the EC50 amounted to 39.2 ± 7.66 nM, the “RF L100I” value was determined as 7.2 and the “SI L100I” value is at least 5765. For the same compound, in data set [5], the EC50 worked out at 6.56 ± 1.07 nM, the “RF K103N” value is reported as 1.2 and the “SI K103N” value is reported as ≥ 34,451. Further, in [6], the EC50 worked out at 35.7 ± 5.75 nM, the “RF Y181C” value came to 6.6 and the “SI Y181C” value is given as at least 6331. In data set [7], the EC50 was 43 ± 0.26 nM, the “RF Y188L” value came out at 7.9 and the “SI Y188L” value is on record as at least 5256. Also, in data set [8], the EC50 came to 37.6 ± 7.41 nM, the “RF E138K” value is 6.9 and the “SI E138K” value was at least 6011. Moreover, in data set [9], the EC50 is 64.7 ± 13.3 nM, the “RF F227L + V106A” value came to 11.9 and the “SI F227L + V106A” value is at least 3493. For the same compound, in [3], the CC50 at 5 days is at least 226 µM.

As to `Cc1cc(C#N)cc(C)c1Oc1nc(NCCN2CCOCC2)nc2c1SCCC2` [compound 20d, 3,5-Dimethyl-4-((2-((2-morpholinoethyl)amino)-7,8-dihydro-6H-thiopyrano[3,2-d]pyrimidin-4-yl)oxy)benzonitrile], the EC50 in [1] came out at 5690 ± 4760 nM. In data set [3], this compound came in with a CC50 at 5 days of 20.5 ± 11.3 µM.

Consider `Cc1cc(C#N)cc(C)c1Oc1nc(NC2CCN(Cc3cccc(C#N)c3)CC2)nc2c1SCCC2` [compound 23b, 4-((2-((1-(3-Cyanobenzyl)piperidin-4-yl)amino)-7,8-dihydro-6H-thiopyrano[3,2-d]pyrimidin-4-yl)oxy)-3,5-dimethylbenzonitrile], for which the concentration for a half-maximal effect (EC50) in data set [1] was found to be 6 ± 1.03 nM; in data set [2], 764 ± 86.1 nM. In data set [3], this compound yielded a CC50 at 5 days of 3.78 ± 0.63 µM.

`Cc1cc(C#N)cc(C)c1Oc1nc(NC2CCN(c3cccc(C#N)c3)CC2)nc2c1SCCC2` [compound 27a, 4-((2-((1-(3-Cyanophenyl)piperidin-4-yl)amino)-7,8-dihydro-6H-thiopyrano[3,2-d]pyrimidin-4-yl)oxy)-3,5-dimethylbenzonitrile]: the values for the concentration for a half-maximal effect (EC50) in data set [1] and in data set [2] were 10.2 ± 7.57 nM and 836 ± 290 nM, respectively. In data set [3], this compound registered a cytotoxic concentration (CC50) at 5 days of 8.39 ± 5.22 µM.
